This note sets out measurements from patent US11718593B2, “2,5-aryl-thiazole analogs for the treatment of neurodegenerative diseases” (Southern Research Institute, priority 2018, dated 2023).

Series [1] is described as follows: Bioavailability / PK study (IV and PO). The settings on record: male, CD1, mouse, plasma. In kind it is in vivo, mouse. On the procedure: The experiments will involve the administration of compounds to 5-6 week old CD1 male mice. Mice are dosed by either a 1 mg/kg IV bolus or 5 mg/kg oral gavage. Blood samples are collected by cardiac puncture at 0, 0.25, 0.5, 1, 2, 4, 6, 8, 12, and 24 hrs. There will be three mice per time point. Plasma concentration over time will be determined by LC/MS from which the standard PK parameters of clearance, volume of distribution, t1/2 and % F can be derived using WinNoLin software (Pharsight Inc.). This will require a total of 60 mice per compound. Plasma will be analyzed by reverse phase chromatography with MS/MS detection operating in the positive ion mode using multiple reaction monitoring using an internal standard and Applied Biosystems Analyst 1.4 software. Peak time (when maximum plasma drug concentration occurs), peak drug level [approximate maximum concentrations of drug in plasma (Cmax)] and tin for drug elimination will be estimated for each tested compound. Bioavailability (F) will be calculated from the ratio of AUCPO/AUCIV and expressed as a percentage. To determine levels in brain, six additional mice will be dosed with 1 mg/kg I.V. and sacrificed at 0.25 and 1 hr. Brain and spinal cord samples will be collected at these two time points, quick frozen in an ice box and kept at −75±15° C. All samples will be weighed and homogenized with phosphate buffered saline (PBS) by brain weight (g) to PBS volume (mL) ratio 1:3 before analysis. The actual concentration is the detected value multiplied by the dilution factor.

The next series deals with MDR/MDCK cells. As to the kind of experiment: Permeability in MDR/MDCK cells. It counts as in vitro ADME, Canine. An excerpt: (§1) A standard panel of in vitro ADME assays will be utilized to assess drug-like properties of compounds and to inform subsequent in vivo PK studies. These assays include: (a) Permeability: MDCK (Madin Darby Canine Kidney) cells transfected with the MDR1 gene encoding for the multi-drug resistant transporter (Pgp) will be utilized to determine a compound's ability to permeate the membrane in apical to basolateral (A-B) and basolateral to apical (B-A) directions. The derived apparent permeability coefficient (Papp) provides an estimate of passive permeability; a ratio of Papp in the B-A/A-B direction gives an estimate of transporter efflux; (b) Solubility: Kinetic solubility is an important parameter for accurate determinations of the dose response. This is estimated using the shake flask method with a μSol Explorer (PION, Billerica, Mass.) at pH 7.4. Compounds are added as a DMSO solution to buffer. The average of two determinations at pH 7.4 will be reported. Solubility at pH 7.4 is relevant for in vitro assays; (c) Metabolic Stability: The potential for a high metabolic clearance compound is estimated using a liver microsome assay. […] The disappearance of the parent molecule is measured by liquid chromatography/mass spectroscopy (LC/MS) detection. […]

In the next series the test system is NF-κB. As to the kind of experiment: High throughput assay for NF-κB reporter activity (luciferase, stably transfected SH-SY5Y cells). It counts as cell-based, human. The settings on record: Homo sapiens, SH-SY5Y, read-out: EC50. On the procedure:
SH-SY5Y human neuroblastoma cell line was obtained from the American Tissue Culture collection (ATCC). A commercially available expression vector containing the NF-kB promoter enhancer region driving the firefly luciferase gene expression and a second plasmid containing the gene conferring resistance to blasticidin were used in a dual transfection approach to obtain a stable cell line. SH-SY5Y cells stably transfected with pNF-κB-luc/pEF6 were plated at 8,000 per well in a volume of 40 μl DMEM in either Corning white opaque, 384-well plates (Cat. No. 3570, Corning, Inc., Corning, N.Y.) or Corning black clear bottom, 384-well plates (Cat. No. 3712, Corning, Inc., Corning, N.Y.) and treated with test compounds for 24 hr at 37° C. Luciferase activity was measured as a reporter of NF-kB activation using the Bright-Glo Luciferase assay kit (Cat. No. E2620, Promega, Madison, Wis.) according to the manufacturer's instructions. Cell viability was measured using the CellTiter-Glo Luminescent Cell Viability assay kit (Cat. No. G7572, Promega, Madison, Wis.) according to the manufacturer's instructions. Briefly, cells were equilibrated at room temperature for 30 min prior to the addition of Bright-Glo to the white opaque plates or CellTiter-Glo to the black clear bottom plates. A volume of assay buffer equal to the volume of cell media was added to each well and incubated for five min to allow complete cell lysis. All procedures were performed in the dark. Luminescence was measured by the Synergy4 Multi-detection microplate reader (BioTek, Winooski, Vt.) within 15 min of lysis.

A short description of the next series: Solubility. Particulars: buffer, pH 7.4, aqueous buffer, kinetic from dmso stock. It counts as physicochemical.
Source text: as §1

In brackets after ≈: the same amount, converted by molar mass. Like-named read-outs stand apart in the source and are kept apart here.

For `O=C(O)c1cccc(-c2csc(Nc3ccccc3F)n2)c1` [Compound 3, 3-(2-((2-Fluorophenyl)amino)thiazol-4-yl)benzoic acid], in series [1] (oral, 5 mg/kg dose), the Cmax stood at 100 ng/mL. Also, the bioavailability in series [1] (1 mg/Kg IV and 5 mg/Kg po, read-out: orally bioavailable) was found to be 26%. In addition, in the series on MDR/MDCK cells, the efflux result is given as “no efflux was observed” and the permeability entry is “highly permeable”. The EC50 with NF-κB (Table 2, unit not given (μM for nos. 3 and 20)) was 0.84 µM. Besides, the EC50 in the series with NF-κB was roughly 1 µM. The solubility in the series “Solubility” was 80 µM (≈ 25.1 µg/mL).
